Article PMC10004634 (PLOS ONE, 2023)
Read-outs that look alike come from different tables or passages of the source.

What was measured:
Assay in all cases: biochemical
Set-up in all cases: KINOMEscan scanMAX competition binding, DNA-tagged kinases, qPCR read-out, percent control at 300 nM
BIKE = target: T1, BIKE (Homo sapiens, UniProt Q9NSY1)
T1 construct: gene BMP2K

BRAF = BRAF (Homo sapiens, UniProt P15056)
CAMK1D = CAMK1D (Homo sapiens, UniProt Q8IU85)
EPHA2 = EPHA2 (Homo sapiens, UniProt P29317)
FER = FER (Homo sapiens, UniProt P16591)
FRK = FRK (Homo sapiens, UniProt P42685)
KIT(D816H) = KIT(D816H) (Homo sapiens, UniProt P10721, D816H)
MET(M1250T) = MET(M1250T) (Homo sapiens, UniProt P08581, M1250T)
PAK6 = PAK6 (Homo sapiens, UniProt Q9NQU5)
PIK3CA(Q546K) = PIK3CA(Q546K) (Homo sapiens, UniProt P42336, Q546K)
RET(V804M) = RET(V804M) (Homo sapiens, UniProt P07949, V804M)
RIPK1 = target: T2, RIPK1 (Homo sapiens, UniProt Q13546)
T2 sequence (Q13546 1-671): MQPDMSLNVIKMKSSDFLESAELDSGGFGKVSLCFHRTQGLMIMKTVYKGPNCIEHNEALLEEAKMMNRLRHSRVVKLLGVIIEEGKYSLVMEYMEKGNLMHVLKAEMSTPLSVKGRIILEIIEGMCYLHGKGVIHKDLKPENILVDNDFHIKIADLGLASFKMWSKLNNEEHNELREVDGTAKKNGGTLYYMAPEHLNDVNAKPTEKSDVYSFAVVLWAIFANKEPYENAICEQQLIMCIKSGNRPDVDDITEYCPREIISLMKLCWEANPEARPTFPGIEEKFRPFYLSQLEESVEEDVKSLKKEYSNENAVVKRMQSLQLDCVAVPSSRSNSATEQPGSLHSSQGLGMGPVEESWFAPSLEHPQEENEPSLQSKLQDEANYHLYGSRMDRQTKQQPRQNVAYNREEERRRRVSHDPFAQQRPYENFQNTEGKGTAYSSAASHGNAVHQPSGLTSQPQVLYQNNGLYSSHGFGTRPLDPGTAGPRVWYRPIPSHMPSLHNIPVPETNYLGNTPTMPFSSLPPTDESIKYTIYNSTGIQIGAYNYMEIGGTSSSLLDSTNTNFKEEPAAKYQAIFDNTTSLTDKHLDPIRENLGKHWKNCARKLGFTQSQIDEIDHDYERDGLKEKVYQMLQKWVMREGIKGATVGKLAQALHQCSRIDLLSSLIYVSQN

[1] = target: T3, RSK1(Kin.Dom.1-N-terminal) (Homo sapiens, UniProt Q15418)
T3 construct: gene RPS6KA1; Kin.Dom.1-N-terminal

SRMS = SRMS (Homo sapiens, UniProt Q9H3Y6)
VEGFR2 = target: T4, VEGFR2 (Homo sapiens, UniProt P35968)
T4 construct: gene KDR

WEE1 = WEE1 (Homo sapiens, UniProt P30291)
ZAK = target: T5, ZAK (Homo sapiens, UniProt Q9NYL2)
T5 construct: gene MAP3K20

[2] = read-out: Percent control / Acalabrutinib
[3] = read-out: Percent control / Ibrutinib
[4] = read-out: Percent control / Tirabrutinib
[5] = read-out: Percent control / Zanubrutinib

Sequence of WEE1 (P30291 whole entry): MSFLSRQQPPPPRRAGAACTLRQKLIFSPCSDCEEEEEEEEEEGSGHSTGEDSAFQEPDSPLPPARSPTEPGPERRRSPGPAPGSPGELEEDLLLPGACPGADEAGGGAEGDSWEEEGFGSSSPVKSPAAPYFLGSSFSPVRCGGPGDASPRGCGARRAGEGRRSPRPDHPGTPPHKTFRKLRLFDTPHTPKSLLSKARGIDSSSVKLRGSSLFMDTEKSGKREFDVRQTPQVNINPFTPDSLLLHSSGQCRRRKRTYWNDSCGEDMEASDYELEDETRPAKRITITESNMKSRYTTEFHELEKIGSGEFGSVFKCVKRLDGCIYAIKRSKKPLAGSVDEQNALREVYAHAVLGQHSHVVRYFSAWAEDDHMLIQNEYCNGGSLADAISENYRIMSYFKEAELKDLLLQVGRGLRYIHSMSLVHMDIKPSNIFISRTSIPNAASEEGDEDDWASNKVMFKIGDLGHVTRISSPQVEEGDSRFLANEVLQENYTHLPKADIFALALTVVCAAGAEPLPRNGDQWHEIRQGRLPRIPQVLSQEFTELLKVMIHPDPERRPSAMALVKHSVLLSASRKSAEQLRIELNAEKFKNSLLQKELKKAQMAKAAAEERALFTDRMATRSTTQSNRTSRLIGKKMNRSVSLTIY
Sequence of MET(M1250T) (P08581 whole entry M1250T): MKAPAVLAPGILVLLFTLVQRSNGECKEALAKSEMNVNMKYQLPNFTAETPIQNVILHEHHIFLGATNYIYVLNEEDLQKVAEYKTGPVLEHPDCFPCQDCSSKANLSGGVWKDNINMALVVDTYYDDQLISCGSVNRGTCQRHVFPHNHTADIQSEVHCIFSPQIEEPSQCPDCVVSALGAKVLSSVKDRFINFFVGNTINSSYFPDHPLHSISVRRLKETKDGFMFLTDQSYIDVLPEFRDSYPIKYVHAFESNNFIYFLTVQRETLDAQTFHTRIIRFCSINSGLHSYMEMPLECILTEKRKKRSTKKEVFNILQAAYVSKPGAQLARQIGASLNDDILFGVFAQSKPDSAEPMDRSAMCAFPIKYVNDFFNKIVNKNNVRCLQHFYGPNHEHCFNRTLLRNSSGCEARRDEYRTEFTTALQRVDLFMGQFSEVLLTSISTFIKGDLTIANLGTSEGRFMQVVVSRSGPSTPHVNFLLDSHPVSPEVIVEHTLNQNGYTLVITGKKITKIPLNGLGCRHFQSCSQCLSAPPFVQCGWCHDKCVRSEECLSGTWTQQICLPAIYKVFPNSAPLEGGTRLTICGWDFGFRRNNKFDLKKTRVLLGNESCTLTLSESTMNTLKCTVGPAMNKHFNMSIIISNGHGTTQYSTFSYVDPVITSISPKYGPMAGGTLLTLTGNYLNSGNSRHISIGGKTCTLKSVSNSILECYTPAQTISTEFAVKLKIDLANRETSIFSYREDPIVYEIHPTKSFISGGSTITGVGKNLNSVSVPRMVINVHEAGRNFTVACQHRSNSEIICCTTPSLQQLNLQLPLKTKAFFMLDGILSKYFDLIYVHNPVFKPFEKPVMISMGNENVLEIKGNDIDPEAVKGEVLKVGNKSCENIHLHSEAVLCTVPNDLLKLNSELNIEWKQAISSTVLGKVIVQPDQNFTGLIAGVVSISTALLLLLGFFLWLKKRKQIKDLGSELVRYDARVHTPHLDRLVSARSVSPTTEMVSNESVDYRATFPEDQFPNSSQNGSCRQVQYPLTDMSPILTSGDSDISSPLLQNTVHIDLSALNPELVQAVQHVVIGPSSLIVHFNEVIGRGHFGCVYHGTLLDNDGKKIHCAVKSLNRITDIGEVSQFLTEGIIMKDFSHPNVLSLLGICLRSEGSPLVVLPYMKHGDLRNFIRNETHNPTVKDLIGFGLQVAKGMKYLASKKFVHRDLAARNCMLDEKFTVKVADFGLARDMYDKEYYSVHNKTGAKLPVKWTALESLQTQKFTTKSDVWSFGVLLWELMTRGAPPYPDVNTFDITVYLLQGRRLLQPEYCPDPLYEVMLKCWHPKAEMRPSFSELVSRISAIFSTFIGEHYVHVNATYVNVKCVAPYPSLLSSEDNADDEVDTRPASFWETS
Sequence of BRAF (P15056 whole entry): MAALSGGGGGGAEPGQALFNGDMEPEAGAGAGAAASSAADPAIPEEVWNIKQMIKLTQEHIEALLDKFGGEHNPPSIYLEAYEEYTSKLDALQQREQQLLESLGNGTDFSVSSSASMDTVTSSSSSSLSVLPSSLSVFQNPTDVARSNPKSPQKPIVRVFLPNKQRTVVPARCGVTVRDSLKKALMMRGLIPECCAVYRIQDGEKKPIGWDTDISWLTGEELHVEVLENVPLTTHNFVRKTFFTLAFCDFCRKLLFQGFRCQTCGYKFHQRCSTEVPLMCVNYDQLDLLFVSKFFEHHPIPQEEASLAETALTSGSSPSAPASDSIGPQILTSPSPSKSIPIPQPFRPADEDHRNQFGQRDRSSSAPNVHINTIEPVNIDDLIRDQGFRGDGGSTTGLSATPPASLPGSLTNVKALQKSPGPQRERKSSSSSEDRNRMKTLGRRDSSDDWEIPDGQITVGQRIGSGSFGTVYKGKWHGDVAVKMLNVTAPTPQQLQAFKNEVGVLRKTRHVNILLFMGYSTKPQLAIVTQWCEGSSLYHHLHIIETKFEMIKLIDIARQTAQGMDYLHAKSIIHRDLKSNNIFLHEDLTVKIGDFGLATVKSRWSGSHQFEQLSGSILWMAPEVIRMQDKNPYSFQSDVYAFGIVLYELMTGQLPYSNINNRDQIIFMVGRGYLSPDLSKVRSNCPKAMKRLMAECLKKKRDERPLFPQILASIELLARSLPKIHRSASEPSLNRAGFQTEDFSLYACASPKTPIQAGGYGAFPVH
Sequence of PAK6 (Q9NQU5 whole entry): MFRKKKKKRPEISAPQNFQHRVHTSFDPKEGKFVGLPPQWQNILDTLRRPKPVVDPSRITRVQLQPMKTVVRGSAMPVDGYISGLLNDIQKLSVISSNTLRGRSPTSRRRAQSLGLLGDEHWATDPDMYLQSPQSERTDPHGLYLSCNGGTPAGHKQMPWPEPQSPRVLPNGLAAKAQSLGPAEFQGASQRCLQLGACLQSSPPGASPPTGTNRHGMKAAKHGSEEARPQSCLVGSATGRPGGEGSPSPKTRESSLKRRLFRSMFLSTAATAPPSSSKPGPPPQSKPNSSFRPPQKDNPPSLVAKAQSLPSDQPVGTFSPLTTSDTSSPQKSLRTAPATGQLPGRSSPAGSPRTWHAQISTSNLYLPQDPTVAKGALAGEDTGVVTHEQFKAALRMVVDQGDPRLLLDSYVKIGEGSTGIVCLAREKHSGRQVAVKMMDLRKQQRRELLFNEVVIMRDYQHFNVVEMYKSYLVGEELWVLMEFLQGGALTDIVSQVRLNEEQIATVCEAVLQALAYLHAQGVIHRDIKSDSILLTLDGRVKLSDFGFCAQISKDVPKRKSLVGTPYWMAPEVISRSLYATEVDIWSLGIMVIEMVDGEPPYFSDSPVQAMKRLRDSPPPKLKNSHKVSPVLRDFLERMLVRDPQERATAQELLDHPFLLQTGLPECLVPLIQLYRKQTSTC
Sequence of FRK (P42685 whole entry): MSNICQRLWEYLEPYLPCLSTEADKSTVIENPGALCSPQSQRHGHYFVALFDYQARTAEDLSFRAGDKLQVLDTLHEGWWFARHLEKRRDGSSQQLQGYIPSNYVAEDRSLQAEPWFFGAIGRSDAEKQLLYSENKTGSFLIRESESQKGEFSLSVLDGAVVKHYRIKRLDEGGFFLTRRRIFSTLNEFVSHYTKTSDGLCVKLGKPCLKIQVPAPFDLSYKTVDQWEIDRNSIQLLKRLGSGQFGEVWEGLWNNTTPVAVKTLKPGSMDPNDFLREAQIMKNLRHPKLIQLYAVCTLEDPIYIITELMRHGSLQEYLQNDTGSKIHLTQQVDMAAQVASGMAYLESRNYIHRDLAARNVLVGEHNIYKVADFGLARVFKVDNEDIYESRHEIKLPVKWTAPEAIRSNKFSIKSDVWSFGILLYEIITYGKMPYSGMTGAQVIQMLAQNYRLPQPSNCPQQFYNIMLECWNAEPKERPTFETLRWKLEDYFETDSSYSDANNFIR
Sequence of PIK3CA(Q546K) (P42336 whole entry Q546K): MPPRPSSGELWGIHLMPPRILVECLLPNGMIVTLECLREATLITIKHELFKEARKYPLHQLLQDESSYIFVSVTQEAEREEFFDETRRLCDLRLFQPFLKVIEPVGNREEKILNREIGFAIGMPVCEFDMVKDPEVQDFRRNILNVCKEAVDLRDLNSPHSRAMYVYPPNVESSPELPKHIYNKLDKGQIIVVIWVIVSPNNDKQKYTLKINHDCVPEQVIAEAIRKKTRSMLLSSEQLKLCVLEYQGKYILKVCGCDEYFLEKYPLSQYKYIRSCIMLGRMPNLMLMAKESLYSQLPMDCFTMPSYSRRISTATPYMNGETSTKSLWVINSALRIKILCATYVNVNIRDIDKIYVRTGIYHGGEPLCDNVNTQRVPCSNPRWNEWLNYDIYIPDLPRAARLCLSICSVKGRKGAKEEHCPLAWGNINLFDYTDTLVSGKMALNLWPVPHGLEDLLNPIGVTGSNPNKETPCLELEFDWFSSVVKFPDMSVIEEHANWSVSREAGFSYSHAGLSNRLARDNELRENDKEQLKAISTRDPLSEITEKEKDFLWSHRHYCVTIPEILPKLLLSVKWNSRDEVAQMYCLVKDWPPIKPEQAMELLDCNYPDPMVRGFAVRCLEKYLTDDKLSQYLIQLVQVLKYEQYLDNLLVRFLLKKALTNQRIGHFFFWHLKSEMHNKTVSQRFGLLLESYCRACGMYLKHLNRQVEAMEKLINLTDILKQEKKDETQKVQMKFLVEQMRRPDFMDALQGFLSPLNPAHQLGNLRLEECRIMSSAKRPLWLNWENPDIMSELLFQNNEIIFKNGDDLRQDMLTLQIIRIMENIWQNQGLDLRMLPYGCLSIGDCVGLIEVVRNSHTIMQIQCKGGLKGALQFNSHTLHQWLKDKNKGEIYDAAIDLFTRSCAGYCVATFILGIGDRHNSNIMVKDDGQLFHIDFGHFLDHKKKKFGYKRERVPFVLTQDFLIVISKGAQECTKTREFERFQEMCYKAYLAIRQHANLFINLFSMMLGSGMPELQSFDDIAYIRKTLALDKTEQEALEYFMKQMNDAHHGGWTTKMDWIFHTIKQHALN

Compound: CC#CC(=O)N1CCC[C@H]1c1nc(-c2ccc(C(=O)Nc3ccccn3)cc2)c2c(N)nccn12 [Acalabrutinib]
- remaining binding at 0.3 µM (BIKE; [2]): 94%
- remaining binding at 0.3 µM (BRAF; [2]): 85%
- remaining binding at 0.3 µM (CAMK1D; [2]): 71%
- remaining binding at 0.3 µM (EPHA2; [2]): 94%
- remaining binding at 0.3 µM (FER; [2]): 84%
- remaining binding at 0.3 µM (FRK; [2]): 79%
- remaining binding at 0.3 µM (KIT(D816H); [2]): 82%
- remaining binding at 0.3 µM (MET(M1250T); [2]): 93%
- remaining binding at 0.3 µM (PAK6; [2]): 88%
- remaining binding at 0.3 µM (PIK3CA(Q546K); [2]): 88%
- remaining binding at 0.3 µM (RET(V804M); [2]): 85%
- remaining binding at 0.3 µM (RIPK1; [2]): 93%
- remaining binding at 0.3 µM [1, 2]: 79%
- remaining binding at 0.3 µM (SRMS; [2]): 79%
- remaining binding at 0.3 µM (VEGFR2; [2]): 98%
- remaining binding at 0.3 µM (WEE1; [2]): 80%
- remaining binding at 0.3 µM (ZAK; [2]): 83%

Compound: C=CC(=O)N1CCC[C@@H](n2nc(-c3ccc(Oc4ccccc4)cc3)c3c(N)ncnc32)C1 [Ibrutinib]
- remaining binding at 0.3 µM (BIKE; [3]): 66%
- remaining binding at 0.3 µM (BRAF; [3]): 97%
- remaining binding at 0.3 µM (CAMK1D; [3]): 97%
- remaining binding at 0.3 µM (FER; [3]): 94%
- remaining binding at 0.3 µM (FRK; [3]): 32%
- remaining binding at 0.3 µM (PIK3CA(Q546K); [3]): 62%
- remaining binding at 0.3 µM (RET(V804M); [3]): 94%
- remaining binding at 0.3 µM (RIPK1; [3]): 93%
- remaining binding at 0.3 µM [1, 3]: 98%
- remaining binding at 0.3 µM (SRMS; [3]): 0.3%
- remaining binding at 0.3 µM (VEGFR2; [3]): 95%
- remaining binding at 0.3 µM (WEE1; [3]): 89%
- remaining binding at 0.3 µM (ZAK; [3]): 70%

Compound: CC#CC(=O)N1CC[C@@H](n2c(=O)n(-c3ccc(Oc4ccccc4)cc3)c3c(N)ncnc32)C1 [Tirabrutinib]
- remaining binding at 0.3 µM (BIKE; [4]): 88%
- remaining binding at 0.3 µM (CAMK1D; [4]): 99%
- remaining binding at 0.3 µM (EPHA2; [4]): 93%
- remaining binding at 0.3 µM (FER; [4]): 93%
- remaining binding at 0.3 µM (KIT(D816H); [4]): 84%
- remaining binding at 0.3 µM (MET(M1250T); [4]): 93%
- remaining binding at 0.3 µM (PAK6; [4]): 98%
- remaining binding at 0.3 µM (PIK3CA(Q546K); [4]): 78%
- remaining binding at 0.3 µM (SRMS; [4]): 82%
- remaining binding at 0.3 µM (WEE1; [4]): 93%

Compound: C=CC(=O)N1CCC([C@@H]2CCNc3c(C(N)=O)c(-c4ccc(Oc5ccccc5)cc4)nn32)CC1 [Zanubrutinib]
- remaining binding at 0.3 µM (BRAF; [5]): 97%
- remaining binding at 0.3 µM (CAMK1D; [5]): 81%
- remaining binding at 0.3 µM (EPHA2; [5]): 67%
- remaining binding at 0.3 µM (FER; [5]): 100%
- remaining binding at 0.3 µM (FRK; [5]): 42%
- remaining binding at 0.3 µM (KIT(D816H); [5]): 96%
- remaining binding at 0.3 µM (MET(M1250T); [5]): 100%
- remaining binding at 0.3 µM (PAK6; [5]): 91%
- remaining binding at 0.3 µM (PIK3CA(Q546K); [5]): 100%
- remaining binding at 0.3 µM (RET(V804M); [5]): 94%
- remaining binding at 0.3 µM (RIPK1; [5]): 97%
- remaining binding at 0.3 µM [1, 5]: 74%
- remaining binding at 0.3 µM (VEGFR2; [5]): 100%
- remaining binding at 0.3 µM (WEE1; [5]): 100%
- remaining binding at 0.3 µM (ZAK; [5]): 62%
